Experimental data published in patent US10004701B2, “Methods and compositions for treating infection” (UNIVERSITY OF ROCHESTER, priority 2012, dated 2018).
Read-outs that look alike come from different tables or passages of the source.

Experiments:
Experiment in all cases: AK assay 384-well format, Prestwick library screening
E. faecium = type: cell-based, Enterococcus faecium; conditions: 50 μM final drug concentration; for fold induction at 50 µM: Enterococcus faecium, 3 h
[1] = tested on: S. aureus strain USA300-0114; type: cell-based, Staphylococcus aureus; conditions: 50 μM final drug concentration; for fold induction at 50 µM: Staphylococcus aureus, USA300, 3 h
K. pneumoniae = type: cell-based, Klebsiella pneumoniae; conditions: 50 μM final drug concentration; for fold induction at 50 µM: Klebsiella pneumoniae, 3 h, cutoff for positive-scoring molecules 3-fold increase
[2] = tested on: A. baumannii strain 98-37-09; type: cell-based, Acinetobacter baumannii; conditions: 50 μM final drug concentration; for fold induction at 50 µM: Acinetobacter baumannii, 983709, 3 h, cutoff for positive-scoring molecules 3-fold increase
P. aeruginosa = type: cell-based, Pseudomonas aeruginosa; conditions: 50 μM final drug concentration; for fold induction at 50 µM: Pseudomonas aeruginosa, 3 h
E. cloacae = type: cell-based, Enterobacter cloacae; conditions: 50 μM final drug concentration; for fold induction at 50 µM: Enterobacter cloacae, 3 h
E. coli = type: cell-based, Escherichia coli; conditions: 50 μM final drug concentration; for fold induction at 50 µM: Escherichia coli, 3 h
[3] = cutoff for positive-scoring molecules 3-fold increase, read-out: AK-based Prestwick Library Screening Results, E. faecium (fold increase in extracellular AK activity)
[4] = cutoff for positive-scoring molecules 3-fold increase, read-out: AK-based Prestwick Library Screening Results, S. aureus (fold increase in extracellular AK activity)
[5] = read-out: AK-based Prestwick Library Screening Results, K. pneumoniae (fold increase in extracellular AK activity)
[6] = read-out: AK-based Prestwick Library Screening Results, A. baumannii (fold increase in extracellular AK activity)
[7] = cutoff for positive-scoring molecules 3-fold increase, read-out: AK-based Prestwick Library Screening Results, P. aeruginosa (fold increase in extracellular AK activity)
[8] = cutoff for positive-scoring molecules 3-fold increase, read-out: AK-based Prestwick Library Screening Results, E. cloacae (fold increase in extracellular AK activity)
[9] = cutoff for positive-scoring molecules 3-fold increase, read-out: AK-based Prestwick Library Screening Results, E. coli (fold increase in extracellular AK activity)

CC1Cc2ccccc2N1NC(=O)c1ccc(Cl)c(S(N)(=O)=O)c1 (centres unmarked) [Indapamide]
fold induction at 50 µM (E. faecium; planktonic E. faecium, 384-well, cutoff for positive-scoring molecules 3-fold increase, read-out: AK-based Prestwick Library Screening Results: E. faecium (increase in extracellular AK activity)): 1.1
fold induction at 50 µM ([1]; planktonic S. aureus, 384-well, cutoff for positive-scoring molecules 3-fold increase, read-out: AK-based Prestwick Library Screening Results: S. aureus (increase in extracellular AK activity)): 1
fold induction at 50 µM (K. pneumoniae; planktonic K. pneumoniae, 384-well, read-out: AK-based Prestwick Library Screening Results: K. pneumoniae (increase in extracellular AK activity)): 1.1
fold induction at 50 µM ([2]; planktonic A. baumannii, 384-well, read-out: AK-based Prestwick Library Screening Results: A. baumannii (increase in extracellular AK activity)): 1
fold induction at 50 µM (P. aeruginosa; planktonic P. aeruginosa, 384-well, cutoff for positive-scoring molecules 3-fold increase, read-out: AK-based Prestwick Library Screening Results: P. aeruginosa (increase in extracellular AK activity)): 1.1
fold induction at 50 µM (E. cloacae; planktonic E. cloacae, 384-well, cutoff for positive-scoring molecules 3-fold increase, read-out: AK-based Prestwick Library Screening Results: E. cloacae (increase in extracellular AK activity)): 1.7
fold induction at 50 µM (E. coli; planktonic E. coli, 384-well, cutoff for positive-scoring molecules 3-fold increase, read-out: AK-based Prestwick Library Screening Results: E. coli (increase in extracellular AK activity)): 1.1

COc1ccc2c(c1)c(CC(=O)O)c(C)n2C(=O)c1ccc(Cl)cc1 [Indomethacin]
fold induction at 50 µM (E. faecium; 384-well format, cutoff for positive-scoring molecules 3-fold increase, read-out: AK-based Prestwick Library Screening Results, E. faecium (increase in extracellular AK activity)): 0.9
fold induction at 50 µM ([1]; 384-well format, cutoff for positive-scoring molecules 3-fold increase, read-out: AK-based Prestwick Library Screening Results, S. aureus (increase in extracellular AK activity)): 0.6
fold induction at 50 µM (K. pneumoniae; 384-well format, read-out: AK-based Prestwick Library Screening Results, K. pneumoniae (increase in extracellular AK activity)): 0.8
fold induction at 50 µM ([2]; 384-well format, read-out: AK-based Prestwick Library Screening Results, A. baumannii (increase in extracellular AK activity)): 1
fold induction at 50 µM (P. aeruginosa; 384-well format, cutoff for positive-scoring molecules 3-fold increase, read-out: AK-based Prestwick Library Screening Results, P. aeruginosa (increase in extracellular AK activity)): 0.9
fold induction at 50 µM (E. cloacae; 384-well format, cutoff for positive-scoring molecules 3-fold increase, read-out: AK-based Prestwick Library Screening Results, E. cloacae (increase in extracellular AK activity)): 1.2
fold induction at 50 µM (E. coli; 384-well format, cutoff for positive-scoring molecules 3-fold increase, read-out: AK-based Prestwick Library Screening Results, E. coli (increase in extracellular AK activity)): 0.9

CC(C(=O)O)c1ccc(N2Cc3ccccc3C2=O)cc1 (centres unmarked) [Indoprofen]
fold induction at 50 µM (E. faecium; planktonic, cutoff for positive-scoring molecules 3-fold increase, read-out: AK-based Prestwick Library Screening Results, E. faecium (fold increase in extracellular AK activity)): 0.1
fold induction at 50 µM ([1]; planktonic, cutoff for positive-scoring molecules 3-fold increase, read-out: AK-based Prestwick Library Screening Results, S. aureus (fold increase in extracellular AK activity)): 0.2
fold induction at 50 µM (K. pneumoniae; planktonic, read-out: AK-based Prestwick Library Screening Results, K. pneumoniae (fold increase in extracellular AK activity)): 0.1
fold induction at 50 µM ([2]; planktonic, read-out: AK-based Prestwick Library Screening Results, A. baumannii (fold increase in extracellular AK activity)): 0.2
fold induction at 50 µM (P. aeruginosa; planktonic, cutoff for positive-scoring molecules 3-fold increase, read-out: AK-based Prestwick Library Screening Results, P. aeruginosa (fold increase in extracellular AK activity)): 0.2
fold induction at 50 µM (E. cloacae; planktonic, cutoff for positive-scoring molecules 3-fold increase, read-out: AK-based Prestwick Library Screening Results, E. cloacae (fold increase in extracellular AK activity)): 1.5
fold induction at 50 µM (E. coli; planktonic, cutoff for positive-scoring molecules 3-fold increase, read-out: AK-based Prestwick Library Screening Results, E. coli (fold increase in extracellular AK activity)): 0.2

O=C(CCCCC(=O)Nc1c(I)cc(I)c(C(=O)O)c1I)Nc1c(I)cc(I)c(C(=O)O)c1I [Iodipamide]
fold induction at 50 µM (E. faecium; [3]): 1
fold induction at 50 µM [1, 4]: 1
fold induction at 50 µM (K. pneumoniae; [5]): 1
fold induction at 50 µM [2, 6]: 1.2
fold induction at 50 µM (P. aeruginosa; [7]): 1.1
fold induction at 50 µM (E. cloacae; [8]): 1.6
fold induction at 50 µM (E. coli; [9]): 1.2

CC(=O)N(CC(O)CN(C(C)=O)c1c(I)c(C(=O)NCC(O)CO)c(I)c(C(=O)NCC(O)CO)c1I)c1c(I)c(C(=O)NCC(O)CO)c(I)c(C(=O)NCC(O)CO)c1I (centres unmarked) [Iodixanol]
fold induction at 50 µM (E. faecium; […], read-out: AK-based Prestwick Library Screening Results, E. faecium (fold increase in extracellular AK activity)): 1.1
fold induction at 50 µM ([1]; […], read-out: AK-based Prestwick Library Screening Results, S. aureus (fold increase in extracellular AK activity)): 1.3
fold induction at 50 µM (K. pneumoniae; [5]): 1
fold induction at 50 µM [2, 6]: 1
fold induction at 50 µM (P. aeruginosa; […], read-out: AK-based Prestwick Library Screening Results, P. aeruginosa (fold increase in extracellular AK activity)): 1.2
fold induction at 50 µM (E. cloacae; […], read-out: AK-based Prestwick Library Screening Results, E. cloacae (fold increase in extracellular AK activity)): 1.5
fold induction at 50 µM (E. coli; […], read-out: AK-based Prestwick Library Screening Results, E. coli (fold increase in extracellular AK activity)): 1.3

CC(=O)N(CC(O)CO)c1c(I)c(C(=O)NCC(O)CO)c(I)c(C(=O)NCC(O)CO)c1I (centres unmarked) [Iohexol]
fold induction at 50 µM (E. faecium; planktonic E. faecium, cutoff for positive-scoring molecules 3-fold increase, read-out: AK-based Prestwick Library Screening Results, E. faecium (increase in extracellular AK activity)): 0.9
fold induction at 50 µM ([1]; planktonic S. aureus, cutoff for positive-scoring molecules 3-fold increase, read-out: AK-based Prestwick Library Screening Results, S. aureus (increase in extracellular AK activity)): 0.7
fold induction at 50 µM (K. pneumoniae; planktonic K. pneumoniae, read-out: AK-based Prestwick Library Screening Results, K. pneumoniae (increase in extracellular AK activity)): 0.7
fold induction at 50 µM ([2]; planktonic A. baumannii, read-out: AK-based Prestwick Library Screening Results, A. baumannii (increase in extracellular AK activity)): 0.9
fold induction at 50 µM (P. aeruginosa; planktonic P. aeruginosa, cutoff for positive-scoring molecules 3-fold increase, read-out: AK-based Prestwick Library Screening Results, P. aeruginosa (increase in extracellular AK activity)): 0.8
fold induction at 50 µM (E. cloacae; planktonic E. cloacae, cutoff for positive-scoring molecules 3-fold increase, read-out: AK-based Prestwick Library Screening Results, E. cloacae (increase in extracellular AK activity)): 1.1
fold induction at 50 µM (E. coli; planktonic E. coli, cutoff for positive-scoring molecules 3-fold increase, read-out: AK-based Prestwick Library Screening Results, E. coli (increase in extracellular AK activity)): 1

C[C@H](O)C(=O)Nc1c(I)c(C(=O)NC(CO)CO)c(I)c(C(=O)NC(CO)CO)c1I [Iopamidol]
fold induction at 50 µM (E. faecium; [3]): 1
fold induction at 50 µM [1, 4]: 1.3
fold induction at 50 µM (K. pneumoniae; [5]): 1.2
fold induction at 50 µM [2, 6]: 1.2
fold induction at 50 µM (P. aeruginosa; [7]): 1.2
fold induction at 50 µM (E. cloacae; [8]): 1.4
fold induction at 50 µM (E. coli; [9]): 1.2

CCC(Cc1c(I)cc(I)c(N)c1I)C(=O)O (centres unmarked) [Iopanoic acid]
fold induction at 50 µM (E. faecium; [3]): 0.9
fold induction at 50 µM [1, 4]: 0.4
fold induction at 50 µM (K. pneumoniae; [5]): 0.6
fold induction at 50 µM [2, 6]: 0.6
fold induction at 50 µM (P. aeruginosa; [7]): 0.6
fold induction at 50 µM (E. cloacae; [8]): 9.6
fold induction at 50 µM (E. coli; [9]): 0.6

COCC(=O)Nc1c(I)c(C(=O)NCC(O)CO)c(I)c(C(=O)N(C)CC(O)CO)c1I (centres unmarked) [Iopromide]
fold induction at 50 µM (E. faecium; [3]): 1
fold induction at 50 µM [1, 4]: 1.3
fold induction at 50 µM (K. pneumoniae; [5]): 1.1
fold induction at 50 µM [2, 6]: 1.1
fold induction at 50 µM (P. aeruginosa; [7]): 1.2
fold induction at 50 µM (E. cloacae; [8]): 1.4
fold induction at 50 µM (E. coli; [9]): 1.2

O=C(NCC(O)CO)c1c(I)c(C(=O)NCC(O)CO)c(I)c(N(CCO)C(=O)CO)c1I (centres unmarked) [Ioversol]
fold induction at 50 µM (E. faecium; [3]): 1
fold induction at 50 µM [1, 4]: 1.2
fold induction at 50 µM (K. pneumoniae; [5]): 1.2
fold induction at 50 µM [2, 6]: 1.3
fold induction at 50 µM (P. aeruginosa; [7]): 1.2
fold induction at 50 µM (E. cloacae; [8]): 1.4
fold induction at 50 µM (E. coli; [9]): 1.2

CC(C)[N+]1(C)[C@@H]2CC[C@H]1CC(OC(=O)C(CO)c1ccccc1)C2.[Br-] (some centres unmarked) [Ipratropium bromide]
AK-based Prestwick Library Screening Results, E. faecium (increase in extracellular AK activity) (E. faecium; planktonic E. faecium, […]): 0.9
AK-based Prestwick Library Screening Results, S. aureus (increase in extracellular AK activity) ([1]; planktonic S. aureus, […]): 0.7
AK-based Prestwick Library Screening Results, K. pneumoniae (increase in extracellular AK activity) (K. pneumoniae; planktonic K. pneumoniae, […]): 0.6
AK-based Prestwick Library Screening Results, A. baumannii (increase in extracellular AK activity) ([2]; planktonic A. baumannii, […]): 0.6
AK-based Prestwick Library Screening Results, P. aeruginosa (increase in extracellular AK activity) (P. aeruginosa; planktonic P. aeruginosa, […]): 0.8
AK-based Prestwick Library Screening Results, E. cloacae (increase in extracellular AK activity) (E. cloacae; planktonic E. cloacae, […]): 0.8
AK-based Prestwick Library Screening Results, E. coli (increase in extracellular AK activity) (E. coli; planktonic E. coli, […]): 0.6
